Test results published in US20190070165A1, “N-HYDROXYISOQUINOLINEDIONE INHIBITORS OF HBV REPLICATION” (Saint Louis University, priority 2016, published 2019).
Where two headings read alike, the source gives them in different places.

What was measured:
[1] = system: HBV replication; test: HBV replication inhibition assay in HepDES19 cells (strand-preferential q-PCR); assay type: cell-based, Hepatitis B virus; details: Hepatitis B virus
Procedure: HBV replication assay. […] Cells were seeded into 6-well plates and incubated in DMEM/F12, 10% fetal bovine serum (FBS), 1% penicillin/streptomycin (P/S) with 1 μg/mL tetracycline. Tetracycline was withdrawn after 24 hours. The test compound was applied to duplicate wells 48 hours later in medium containing a final DMSO concentration of 1%, and medium containing the compound was refreshed daily for the following two days. Cells were harvested and non-encapsidated nucleic acids were digested with micrococcal nuclease (New England Biolabs). HBV DNA was purified from capsids using QIAamp Cador Pathogen Mini Kit (Qiagen) with proteinase K incubation overnight at 37° C. TaqMan PCR was performed for 40 cycles at an annealing temperature of 60° C.
Thirty-nine HID, HPD, flutimide, and related POH compounds (Structures shown in FIG. 3) were screened for their ability to inhibit HBV replication in HepDES19 cells. […] Inhibition was calculated as the amount of plus-polarity DNA relative to the DMSO treated controls.
Briefly, HepDES19 were seeded in 12-well plates at 2×10^5 cells per well in the absence of tetracycline. Test compound was applied to cells 48 hours after removal of tetracycline. […] HBV DNA was purified from capsids using a QIAamp pathogen minikit with proteinase K digestion extended to overnight at 37° C. TaqMan PCR was performed for 40 cycles with an annealing temperature of 60° C.

[2] = system: HSV-1; test: HSV-1 replication inhibition assay in Vero cells; assay type: cell-based, herpes simplex virus 1; details: read-out: HSV-1 suppression (log10 at 5 μM), class symbol
Procedure: Thirty-seven compounds were counter-screened for efficacy against HSV-1 to evaluate specificity of the inhibitors and to help determine if the efficacy against HBV replication may be due to an unsuspected indirect effect on the cells. Vero cells infected with HSV-1 at an MOI of 0.1 were treated with 5 μM of compound for 24 hours. Inhibition was calculated as log 10 suppression of plaque forming units compared with DMSO vehicle control.
Vero cells were maintained DMEM supplemented with 3% newborn calf serum, 3% bovine growth serum, 2 mM L-glutamine, and P/S. Test compounds were applied to the cells in the presence of 0.05% DMSO. The herpes simplex virus 1 (HSV-1) strain used for screening was a de-identified clinical isolate from the Saint Louis University Hospital passaged once in culture.
Compounds and virus were diluted in phosphate buffered saline (PBS) containing 2% newborn calf serum and 2 mM L-glutamine so that the final concentration of compound was 5 μM. The cells were incubated at 37° C. for 1 hour with the virus containing inoculum, then the inoculum was removed and the wells were washed once in PBS. Compound diluted to 5 μM in supplemented DMEM was added and cells were incubated at 37° C. for an additional 23 hours. The plates were then microscopically inspected for cytopathic effect (CPE) or toxicity and then frozen at −80° C. Virus titers for wells with limited CPE compared to DMSO vehicle-treated controls were then determined by plaque assay on Vero cells. Each experiment was repeated at least once.

[3] = system: patient-derived RNAseH enzymes; test: Biochemical RNAseH assay with variant patient-derived RNAseH enzymes; design: species or system Hepatitis B virus; details: compounds at their respective IC50 values, four genotype D enzymes
Procedure: HBV has 8 genotypes differing in sequence by 8%. Genetic diversity in the RNAseH domain is about 6%, which is easily high enough to modulate viral sensitivity to RNAseH inhibitors. […] Twelve purified, patient-derived RNAseH enzymes (4 from each genotypes B, C and D) were tested with the compounds at their respective IC50 values in a biochemical RNAseH assay. […] Equivalent results were obtained for all 12 enzymes against compounds #1 and #46. Therefore, HBV's high genetic variation is unlikely to present a substantial barrier to drug development.

[4] = biological target: T1, HBV RNaseH (Hepatitis B virus genotype D subtype ayw, UniProt P03156); details: for Inhibition of HBV RNaseH, Oligonucleotide directed cleavage assay: Table 3, compounds at 100, 60 and 20 μM, compounds 1-91 and 138-140 previously reported (Cai et al., 2014); for HBV RNaseH: Table 1, qualitative inhibition in biochemical assay
Target sequence in this assay (P03156 671-832): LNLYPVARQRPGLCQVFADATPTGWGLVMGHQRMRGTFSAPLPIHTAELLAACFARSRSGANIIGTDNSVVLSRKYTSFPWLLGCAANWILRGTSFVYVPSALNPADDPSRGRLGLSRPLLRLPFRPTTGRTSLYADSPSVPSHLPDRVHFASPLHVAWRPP

[5] = biological target: T1, HBV RNaseH; test: Molecular beacon RNaseH assay; details: for inhibition in the molecular beacon assay: 2.1 μg purified HBV RNaseH; for Inhibition of HBV RNaseH, Molecular Beacon cleavage assay: Table 3, 0 to 500 μM
Target sequence in this assay (P03156 671-832): as above
Procedure: In this assay, a hairpin DNA oligonucleotide labeled with fluorescein on one end and a quencher on the other is held in a linear conformation by annealing to a complementary RNA; cleavage of the RNA causes the DNA to fold into a hairpin, suppressing fluorescence (FIG. 8A).
The substrate is a hairpin DNA oligonucleotide with a 5′ fluorescein reporter and a 3′ black hole quencher annealed to a complementary RNA oligonucleotide. The reaction was initiated by adding 5 mM Mg^++, and fluorescence was monitored at 37° C. with a Synergy 4 96-well plate reader. Inhibition was qualitatively determined as a dose-dependent reduction in the rate of substrate degradation.

[6] = system: HBV replication; test: Chou-Talalay synergy analysis with Lamivudine against HBV replication; details: CI <1.0 indicates synergy
Procedure: Chou-Talaly analysis yields a combination index (CI). CI values <1.0 indicate synergy, CIs of approximately 1.0 indicate additive interactions, and CI values >1.0 indicate antagonism. CI values are calculated at various efficacy levels (EC50, EC75, EC90, and EC95), and a weighted CI value favoring higher efficacy levels is also generated.

[7] = biological target: T2, human RNaseH1 (Homo sapiens, UniProt O60930); test: Oligonucleotide-directed RNA cleavage assay, human RNaseH1; assay type: biochemical; details: for IC50: Table 1, quantitative values; for Human RNaseH1: Table 1, qualitative inhibition
T2 construct: made in house; host or cells: E. coli
T2 sequence (O60930 1-286): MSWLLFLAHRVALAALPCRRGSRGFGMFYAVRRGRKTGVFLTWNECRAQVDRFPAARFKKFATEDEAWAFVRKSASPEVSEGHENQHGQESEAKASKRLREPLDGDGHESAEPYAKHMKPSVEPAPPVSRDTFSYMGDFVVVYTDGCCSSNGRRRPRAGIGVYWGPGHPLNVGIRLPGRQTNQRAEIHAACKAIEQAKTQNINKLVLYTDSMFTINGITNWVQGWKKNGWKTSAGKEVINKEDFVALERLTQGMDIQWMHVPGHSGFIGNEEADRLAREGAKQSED
From the text: RNaseH expression and purification.
Oligonucleotide-directed RNA cleavage assay.

[8] = system: HIV replication; details: literature values (Billamboz et al., 2011b; Suchaud et al., 2014); cited from earlier work
[9] = MTT cytotoxicity assay; assay type: cell-based; details: human; Table 2, HepDES19 cells
Procedure: MTT cytotoxicity assays. 1.0×10^4 HepDES19 cells per well were seeded in 96-well plates and incubated in DMEM with 10% FBS plus 1% P/S, 1% non-essential amino acids, and 1% glutamine. Compounds were diluted in medium to the indicated concentrations plus 1% DMSO and added to cells 24 hours after plating, with each concentration tested in triplicate. Medium containing the compound was refreshed daily for the next two days. Thiazolyl blue tetrazolium bromide (MTT, Sigma-Aldrich) was added to 0.25 mg/mL, the cultures were incubated for 60 minutes, metabolites were solubilized in acidic isopropanol, and absorbance was read at 570 nm.

[10] = MTS cytotoxicity assay (CellTiter 96); details: human
Procedure: (§1) HepDES19 cells were seeded at 1×10^4 cells per well in a 96 well plate in the absence of tetracycline. The test compounds were applied in triplicate to the cells 48 hours later and the cells were incubated for 72 hours. Cell viability was measured using the CellTiter 96 Aqueous Non-Radioactive Cell Proliferation Assay (Promega). [3-(4,5-dimethylthiazol-2-yl)-5-(3-carboxymethoxyphenyl)-2-(4-sulfophenyl)-2H-tetrazolium, inner salt] (MTS) and phenazine methosulfate (PMS) solution at 2 mg/mL MTS and 0.043 mg/mL PMS were added to the medium, the cells were incubated for two hours at 37° C., and absorbance was measured at 490 nm. […] Neutral red was added to the media at a final concentration of 40 μg/mL. Cells were washed with PBS and incubated with neutral red medium for two hours at 37° C. The neutral red medium was removed and the cells were washed with PBS. […] Lactate dehydrogenase (LDH) release was measured using the LDH-cytotoxicity colorimetric assay kit (BioVision). Cells were lysed with 1% Triton-X to provide the high control and DMSO vehicle treatment was the low control. Supernatants were collected and transferred to a fresh 96 well plate, and LDH reaction mixture containing the catalyst and dye solution was added. The reaction was incubated for 15-20 minutes at room temperature in a dark box and absorbance was measured at 490 nm. Percent cytotoxicity was calculated as [(test sample−low control)/([…])]×100.

[11] = system: HepDES19 cells; test: MTS cytotoxicity assay (CellTiter 96); details: CC50 by MTS assay over EC50
Procedure: as §1

[12] = Neutral red (NR) cytotoxicity assay; assay type: cell-based; details: human, HepDES19 cells, read-out: Toxicity in HepDES19, NR (CC50)
Procedure: (§2) To further evaluate potential cytotoxicity of these hits, the effect of the compounds was determined for the uptake of neutral red (NR) by the lysosomes and lactate dehydrogenase (LDH) release into the supernatant due to cell membrane permeability. […] Overall, the TI values in Table 3 and FIG. 4 indicate that cytotoxicity was not the cause of antiviral efficacy, although it may have contributed to the apparent efficacy for #84, 85, 90, and 91, which all have TI values below 5.

[13] = Lactate dehydrogenase (LDH) release cytotoxicity assay; assay type: cell-based; details: human, HepDES19 cells, read-out: Toxicity in HepDES19, LDH (CC50)
Procedure: as §2

[14] = biological target: T1, HBV RNaseH; test: Detection of capsid-associated RNA:DNA heteroduplexes by Southern analysis; assay type: cell-based; design: expressed in transfected cells; host or cells: HepDES19 (HepG2 with a stably transfected HBV genotype D genome); details: HepDES19 cells, seven days; #89 at 4×EC50 (10.4 μM), #138 at 30 μM
Procedure: RNA:DNA heteroduplexes migrate as double-stranded products, but degradation of the RNA strand with exogenous RNase causes the DNAs to migrate as single-stranded species. To test for accumulation of RNA:DNA heteroduplexes, HepDES19 cells replicating HBV were treated with 4×EC50 (10.4 μM) of compound #89 and 30 μM compound #138 (negative control). HBV cores were harvested after seven days of compound treatment. Capsid-associated nucleic acids were purified and split into two pools; one pool was treated with RNaseA and the other pool was mock treated.
HepDES19 cells were plated in 100 mm dishes without tetracycline and incubated for 72 hours in the absence of tetracycline before addition of compound #89 at 4×EC50 (10.4 μM) and the negative control compound #138 at 30 μM; compound-containing media was replaced every three days. HBV nucleic acids were purified seven days after compound addition. HBV core particles were isolated by sedimentation through a sucrose cushion as described (Tavis et al., 1998). Cores were treated overnight with proteinase K (0.5 mg/mL) and 1.5% SDS at 37° C. Nucleic acids were purified by phenol-chloroform extraction and ethanol precipitation. The nucleic acids were split into two pools. One pool was treated with RNaseA (1.5 μg/μL) at 37° C. for 30 minutes and the other was mock-treated. […]
Target sequence in this assay (P03156 whole entry): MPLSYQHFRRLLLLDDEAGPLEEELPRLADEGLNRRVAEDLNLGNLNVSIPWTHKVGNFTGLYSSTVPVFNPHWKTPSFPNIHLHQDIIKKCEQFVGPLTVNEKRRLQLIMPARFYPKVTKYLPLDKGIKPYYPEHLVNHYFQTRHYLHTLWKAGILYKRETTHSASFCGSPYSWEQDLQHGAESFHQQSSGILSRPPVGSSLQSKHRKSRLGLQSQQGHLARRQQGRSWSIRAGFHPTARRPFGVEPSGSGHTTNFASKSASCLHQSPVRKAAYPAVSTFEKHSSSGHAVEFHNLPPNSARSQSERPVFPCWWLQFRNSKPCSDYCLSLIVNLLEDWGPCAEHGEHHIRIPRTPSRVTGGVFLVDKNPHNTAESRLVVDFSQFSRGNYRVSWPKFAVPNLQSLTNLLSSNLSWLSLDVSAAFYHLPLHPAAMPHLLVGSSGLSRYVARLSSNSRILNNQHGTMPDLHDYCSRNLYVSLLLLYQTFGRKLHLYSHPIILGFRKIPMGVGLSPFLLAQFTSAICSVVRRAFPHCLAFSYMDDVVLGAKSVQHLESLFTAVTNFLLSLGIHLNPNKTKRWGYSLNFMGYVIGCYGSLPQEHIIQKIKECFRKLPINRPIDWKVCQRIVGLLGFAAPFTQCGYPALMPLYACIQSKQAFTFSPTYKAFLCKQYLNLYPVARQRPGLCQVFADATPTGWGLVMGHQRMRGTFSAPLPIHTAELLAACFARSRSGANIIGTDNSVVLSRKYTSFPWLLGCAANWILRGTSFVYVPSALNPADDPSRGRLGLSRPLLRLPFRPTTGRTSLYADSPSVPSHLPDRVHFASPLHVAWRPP

[15] = HepDES19, read-out: HBV replication inhibition (EC50, μm)
[16] = Human alphaherpesvirus 1, 24 h, 5 μM, Vero cells
[17] = HepDES19 cells, read-out: EC50, HBV replication
[18] = Table 2, HepDES19 cells, read-out: EC50

SMILES	EC50 [1, 15] [µM]	log reduction at 5 µM [2, 16]	inhibition of variant genotype D RNAseH enzymes [3]	Inhibition of HBV RNaseH, Oligonucleotide directed cleavage assay [4]	inhibition in the molecular beacon assay [5]	Inhibition of HBV RNaseH, Molecular Beacon cleavage assay [5]	weighted combination index (CI) with Lamivudine [6]	IC50 [7] [µM]	EC50 [1, 17] [µM]	EC50 [1, 18] [µM]	HBV RNaseH [4]	EC50 [8] [µM]	CC50 [9] [µM]	CC50 at 72 h [10] [µM]	TI (therapeutic index, CC50(MTS)/EC50) [11]	CC50 at 72 h [12] [µM]	CC50 at 72 h [13] [µM]	Human RNaseH1 [7]	other results
O=C1Cc2ccccc2C(=O)N1O [Compound 1, 2-hydroxyisoquinoline-1,3(2H,4H)-dione]	4.2 ± 1.4	< 1	about 50%	+ (Dose-dependent inhibition at ≤100 μM)	inhibited	+ (Dose-dependent inhibition at ≤500 μM)	0.70±0.1												
CC(C)c1ccc(O)c(=O)c(O)c1 [Compound 46, β-thujaplicinol, reference compound]			about 50%				0.44±0.3												
COC(=O)C1C(=O)N(O)C(=O)c2ccccc21 (centres unmarked) [Compound 81]	4.4 ± 3			− (No inhibition detected at 100 μM)	inhibited	+ (Dose-dependent inhibition at ≤500 μM)		4.9	4.4	4	+/−	13.4							log reduction at 5 µM ([2]; Human alphaherpesvirus 1, Vero, 24 h): < 1; inhibition of RNA cleavage by HBV RNaseH ([4]; compounds at 100, 60 and 20 μM): negative
O=C(Nc1ccc2c(c1)C(=O)N(O)C(=O)C2C(=O)NCc1ccc(F)cc1)c1ccccc1 (centres unmarked) [Compound 86]	1.4 ± 0.3	< 1		− (No inhibition detected at 100 μM)		− (No inhibition detected at 500 μM)		4	1.4	1.4	+/−	> 21	> 100	99 ± 2	71	52 ± 11	> 100		
COc1ccc2c(c1)C(=O)N(O)C(=O)C2C(=O)NCc1ccc(F)cc1 (centres unmarked) [Compound 88]	2.5 ± 0.5	< 1		− (No inhibition detected at 100 μM)		− (No inhibition detected at 500 μM)							40	40 ± 6	16	26 ± 2	57 ± 6	+++ (detectable inhibition at 10 μM)	
COc1ccc(CNC(=O)C2C(=O)N(O)C(=O)c3cc([N+](=O)[O-])ccc32)cc1 (centres unmarked) [Compound 89]	2.6 ± 0.8	< 1		− (No inhibition detected at 100 μM)		− (No inhibition detected at 500 μM)												++ (detectable inhibition at 20 μM)	accumulation of RNA:DNA heteroduplexes [14]: caused RNA:DNA heteroduplexes to accumulate
